No end group written: not given here.

For test [1], the system named is cardiac myocytes. The experiment in a line: PMA-induced protection of cardiac myocytes from prolonged hypoxia, cell viability assay. It is filed as cell-based, rat. Particulars: 10 nM PMA for 10 minutes, washed, then 9 hours of hypoxia. The protocol: (§1) Primary cell cultures were prepared as previously described (Disatnik, et al., 1994). Briefly, ventricles from day-old Sprague-Dawley rats were minced, and single isolated myocytes were obtained by alternating cycles of room temperature trypsinization and mechanical dissociation. Cells were washed and preplated in medium 199 with Hanks' salt solution (Gibco/BRL Life Technologies, Gaithersburg, Md.) containing 10% fetal bovine serum (Hyclone Laboratories, Inc., Logan, Utah) to reduce the number of contaminating non-myocardial cells (NMCs). After 30 minutes nonattached cardiac myocytes were collected and replated at a density of 800 cells per mm^2 into 8-well glass chamber slides (Nunc, Naperville, Ill.) for cell viability assays and immunofluorescence staining, into 6-well plastic culture plates (Fisher Scientific, Pittsburgh, Pa.) for lactate dehydrogenase (LDH) assays, or into 100 mm glass culture dishes for Western blot analyses. […]
(§2) Following treatment of cardiac myocytes grown on 8-well chamber slides, living and dead cells were distinguished using the "EUKOLIGHT" Viability/Cytotoxicity assay (Molecular Probes, Eugene, Oreg.). […] The number of viable (green fluorescent by calcine) and non-viable (red fluorescent by ethidium) cardiac myocytes present in 10-20 random microscopic fields per condition per experiment was recorded. […]

Another test concerns βPKC. The experiment in a line: Western blot of PMA-induced PKC translocation from cell soluble to particulate fraction. The test is classed as cell-based, rat. Particulars: 10 nM PMA for 10 minutes, cardiac myocytes. The protocol: (§3) Briefly, ventricles from day-old Sprague-Dawley rats were minced, and single isolated myocytes were obtained by alternating cycles of room temperature trypsinization and mechanical dissociation. […] After 30 minutes nonattached cardiac myocytes were collected and replated at a density of 800 cells per mm^2 into 8-well glass chamber slides (Nunc, Naperville, Ill.) for cell viability assays and immunofluorescence staining, into 6-well plastic culture plates (Fisher Scientific, Pittsburgh, Pa.) for lactate dehydrogenase (LDH) assays, or into 100 mm glass culture dishes for Western blot analyses. […] Experiments were conducted on culture days 6-8.
(§4) Following treatment, medium from one plate was removed, and cells were washed twice with ice-cold phosphate-buffered saline (PBS). 1.5 ml of chilled homogenization buffer consisting of 10 mM Tris-HCl pH 7.4, 1 mM EDTA, 1 mM EGTA, 0.25 M sucrose, and […] each of phenylmethylsulfonyl fluoride, soybean trypsin inhibitor, leupeptin, and aprotinin was added to each dish. Myocytes were scraped from the plates and triturated 3 times with a tuberculin syringe attached to a 22-gauge needle. […] Supernatants were concentrated to a volume of […] with a Centricon 30 filtration unit (Amicon, Beverly, Mass.).
Background: A western blot detects proteins with antibodies after separation by electrophoresis.

For another test, the target named is T1, δPKC (Rattus norvegicus, UniProt P09215).
T1 construct: Western Blot of cardiac myocyte soluble and particulate fractions; endogenous in cells; host or cells: primary neonatal Sprague-Dawley rat ventricular myocytes
Described as above. It is filed as cell-based. Particulars: 10 nM PMA for 10 minutes, cardiac myocytes. The procedure: Primary cell cultures were prepared as previously described (Disatnik, et al., 1994). Briefly, ventricles from day-old Sprague-Dawley rats were minced, and single isolated myocytes were obtained by alternating cycles of room temperature trypsinization and mechanical dissociation. Cells were washed and preplated in medium 199 with Hanks' salt solution (Gibco/BRL Life Technologies, Gaithersburg, Md.) containing 10% fetal bovine serum (Hyclone Laboratories, Inc., Logan, Utah) to reduce the number of contaminating non-myocardial cells (NMCs). […]
Western blot analyses of cardiac myocytes grown on 100 mm glass dishes were carried out as previously described (Liu, Y., et al., 1995). […] Soluble and particulate fractions were then subjected to 12% SDS-PAGE and transferred to nitrocellulose sheets. βPKC levels were determined using monoclonal anti-βPKC antibodies (Seikagaku Kogyo, Tokyo, Japan) diluted 1:1000 followed by incubation with rabbit anti-mouse IgG antibodies (Cappel, Durham, N.C.), also at 1:1000 dilution. δPKC and εPKC levels were determined using rabbit polyclonal anti-δPKC and anti-εPKC antibodies (Gibco/BRL), each at 1:300 dilution. Western blots were then incubated with ^125 I-protein A (ICN Biomedicals, Inc., Irvine, Calif.), and PKC immunoreactive bands were detected by autoradiography.
The ability of PMA to activate the PKC isozymes αPKC, βPKC, δPKC and εPKC was evaluated. […]

Test [2] addresses T2, εPKC (Rattus norvegicus, UniProt P09216).
T2 construct: Western Blot of cardiac myocyte soluble and particulate fractions; endogenous in cells; host or cells: primary neonatal Sprague-Dawley rat ventricular myocytes
T2 sequence (P09216 1-737): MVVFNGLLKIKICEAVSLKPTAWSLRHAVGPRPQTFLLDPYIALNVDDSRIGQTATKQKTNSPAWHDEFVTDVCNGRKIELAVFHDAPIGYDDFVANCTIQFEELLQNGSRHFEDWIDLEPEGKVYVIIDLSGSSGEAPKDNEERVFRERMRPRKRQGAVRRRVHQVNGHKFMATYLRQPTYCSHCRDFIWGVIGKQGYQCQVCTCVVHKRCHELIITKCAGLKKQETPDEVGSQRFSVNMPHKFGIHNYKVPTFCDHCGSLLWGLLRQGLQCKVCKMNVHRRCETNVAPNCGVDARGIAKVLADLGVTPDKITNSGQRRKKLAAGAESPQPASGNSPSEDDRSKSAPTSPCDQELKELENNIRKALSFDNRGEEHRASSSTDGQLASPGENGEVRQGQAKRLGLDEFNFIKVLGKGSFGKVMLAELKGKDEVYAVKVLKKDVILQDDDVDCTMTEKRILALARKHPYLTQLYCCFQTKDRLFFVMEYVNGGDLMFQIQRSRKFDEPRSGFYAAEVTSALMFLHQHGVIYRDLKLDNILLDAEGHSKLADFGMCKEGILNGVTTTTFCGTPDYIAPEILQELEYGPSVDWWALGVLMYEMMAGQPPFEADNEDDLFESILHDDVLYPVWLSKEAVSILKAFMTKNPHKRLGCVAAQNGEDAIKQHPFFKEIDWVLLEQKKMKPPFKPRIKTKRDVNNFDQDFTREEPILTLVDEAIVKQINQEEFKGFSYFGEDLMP
The description is as above. Particulars: 10 nM PMA for 10 minutes, cardiac myocytes. The test is classed as cell-based. The protocol:
as §3, §4

Test [3] concerns the target T2, εPKC. The experiment in a line: Effect of isoform-specific inhibitory peptides on PMA-induced PKC translocation, Western blot. It is filed as cell-based. Particulars: peptide introduced by permeabilization, 10 nM PMA for 10 minutes. The protocol: as §3, §4
Test [4] has as its target T2, εPKC. The test is described as follows: Peptide-induced translocation of PKC in cardiac myocytes. It is filed as cell-based. Particulars: 10 μg/ml in permeabilization buffer. The procedure: as §1
Immunofluorescence staining of cardiac myocytes grown on 8-well glass chamber slides was carried out as previously described (Hauser, et al., 1993). […] Images were recorded on Kodak TMAX 400 film with exposure time of 1 second for all photomicrographs and were processed by an automated, commercial developer without additional adjustment. […]

For test [5], the system named is cardiac myocytes. The experiment in a line: Protection of cardiac myocytes from 9 hours of hypoxia by peptides, cell viability assay. The test is classed as cell-based, rat. Particulars: after 9 hours of hypoxia; peptide introduced by saponin permeabilization; average of two experiments. The procedure: as §1, §2

T1 sequence (P09215 whole entry): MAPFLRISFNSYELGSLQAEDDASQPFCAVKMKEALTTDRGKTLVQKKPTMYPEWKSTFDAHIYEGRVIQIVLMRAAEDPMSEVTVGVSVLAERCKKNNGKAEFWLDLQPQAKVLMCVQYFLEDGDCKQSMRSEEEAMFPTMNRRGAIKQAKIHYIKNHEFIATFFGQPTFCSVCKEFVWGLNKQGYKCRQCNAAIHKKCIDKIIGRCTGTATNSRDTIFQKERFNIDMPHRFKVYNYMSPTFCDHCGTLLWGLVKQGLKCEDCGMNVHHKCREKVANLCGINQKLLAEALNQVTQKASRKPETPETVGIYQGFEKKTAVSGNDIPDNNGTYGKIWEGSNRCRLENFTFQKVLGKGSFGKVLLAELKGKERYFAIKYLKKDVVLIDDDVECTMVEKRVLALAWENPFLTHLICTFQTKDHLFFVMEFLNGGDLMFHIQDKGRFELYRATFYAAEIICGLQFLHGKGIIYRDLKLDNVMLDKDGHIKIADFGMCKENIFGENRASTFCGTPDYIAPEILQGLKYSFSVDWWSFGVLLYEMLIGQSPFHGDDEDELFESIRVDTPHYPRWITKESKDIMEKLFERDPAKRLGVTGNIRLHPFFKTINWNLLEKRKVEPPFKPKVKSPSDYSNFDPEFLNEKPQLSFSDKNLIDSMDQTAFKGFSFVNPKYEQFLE

With `CCCCCCCCCCCCCC(=O)O[C@@H]1[C@@H](C)[C@@]2(O)[C@@H](C=C(CO)C[C@]3(O)C(=O)C(C)=C[C@@H]23)[C@@H]2C(C)(C)[C@]12OC(C)=O` [PMA, 4β-phorbol 12-myristate 13-acetate], the “increase in the proportion of surviving myocytes versus control” value in the test on cardiac myocytes [1] stood at 34%. Also, the “translocation of βPKC from the cell soluble to the cell particulate fraction” value in the test with βPKC is “minimal translocation”. For the same compound, the “translocation of δPKC in response to PMA” value on δPKC is reported as “robust”. Further, at εPKC [2], the “translocation of εPKC in response to PMA” value is “robust”.
On to EAVSLKPT [εV1-2], for which the “reduction in the particulate signal compared with PMA alone (densitometry)” value on εPKC [3] was 23%.
For the compound HDAPIGYD [εV1-7], on εPKC [4], the “cells with translocation of εPKC” value was found to be 70%. For the same compound, the viable cells in the test on cardiac myocytes [5] is recorded as 65%.
In the test with cardiac myocytes [5], SLNPEWNET [β pseudo-RACK peptide] registered a viable cells of 35%.

The record behind these values is patent US6165977A, “Isozyme-specific activators of protein kinase C methods and compositions” (Board of Trustees of the Leland Stanford Junior University, priority 1997, dated 2000).
